Test results from US20040024024A1, “Aromatic sulfone hydroxamates and their use as protease inhibitors” (priority 2001, published 2004).

Tests used:
Test in all cases: In vitro MMP inhibition, IC50 determination (fluorogenic substrate I)
Type in all cases: biochemical
Human recombinant MMP-1 = target: T1, Human recombinant MMP-1 (Homo sapiens, UniProt P03956)
T1 construct: made in house; host or cells: MMP-1-transfected HT-1080 cells (spent media)
T1 sequence (P03956 100-469): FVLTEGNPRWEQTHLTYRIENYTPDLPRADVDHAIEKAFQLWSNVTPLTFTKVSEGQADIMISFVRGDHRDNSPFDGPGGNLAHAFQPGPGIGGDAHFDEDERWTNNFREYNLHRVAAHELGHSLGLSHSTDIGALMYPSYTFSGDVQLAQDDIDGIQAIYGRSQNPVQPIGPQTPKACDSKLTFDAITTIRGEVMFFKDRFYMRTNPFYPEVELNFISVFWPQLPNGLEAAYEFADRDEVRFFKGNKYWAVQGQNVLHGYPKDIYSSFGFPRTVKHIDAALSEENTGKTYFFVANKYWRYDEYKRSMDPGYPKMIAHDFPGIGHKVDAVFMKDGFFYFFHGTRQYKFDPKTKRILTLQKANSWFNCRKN
Description: (§1) Several hydroxamates and salts thereof were analyzed in in vitro assays to determine their ability to inhibit the MMP cleavage of peptide substrates. Inhibition (Ki) and IC50 constants were calculated from the assayed hydroxamate-MMP interactions.
(§2) Human recombinant MMP-1, MMP-2, MMP-9, MMP-13, and MMP-14 were used in this assay. All enzymes were prepared in Assignee's laboratories following usual laboratory procedures. Protocols for the preparation and use of these enzymes are available in the scientific literature. See, e.g., Enzyme Nomenclature (Academic Press, San Diego, Calif., 1992) (and the citations therein). See also, Frije et al., J. Biol. Chem., 26(24), 16766-73 (1994).
The MMP-1 proenzyme was purified from the spent media of MMP-1-transfected HT-1080 cells provided by Dr. Harold Welgus of Washington University (St. Louis, Mo.). The protein was purified on a zinc chelating column.
(§3) All MMPs were activated using 4-aminophenylmercuric acetate (“APMA”, Sigma Chemical, St. Louis, Mo.) or trypsin. MMP-9 also was activated using human recombinant MMP-3 (purified in Assignee's laboratory following standard cloning and purification techniques).
(§4) Two fluorogenic, methoxycoumarin-containing polypeptide substrates were used in the MMP inhibition assays:
(§5) MCA-ProLeuGlyLeuDpaAlaArgNH2 (I)
(§6) Here, “Dpa” is 3-(2,4-dinitrophenyl)-L-2,3-diaminopropionyl group, and “MCA” is 7-methoxycoumarin-4-yl acetyl. Substrate (I) was purchased from Baychem (Redwood City, Calif.), and substrate II was prepared Assignee's laboratory. Substrate I was used in the IC50 determination assays, while substrate II was used in the Ki determination assays. In the absence of MMP inhibitory activity, either substrate is cleaved at the Gly-Leu peptide bond. This cleavage separates the highly fluorogenic peptide from the 2,4-dinitrophenyl quencher, thus resulting in increase of fluorescent intensity.
(§7) The stock solutions of the assayed hydroxamates (or salts thereof) were prepared in 1% dimethyl sulfoxide (DMSO). These stock solutions were diluted in Buffer A (100 mM Tris-HCl, 100 mM NaCl, 10 mM CaCl2, 0.05% polyoxyethylene 23 lauryl ether, pH 7.5) to obtain solutions with different hydroxamate concentrations, i.e., assay solutions with different concentrations of the assayed MMP inhibitory compound. The experiment controls contained the same amount of Buffer A/DMSO as the assayed sample, but contained no hydroxamate (or salt thereof).
(§8) The assays from which the IC50 determinations were made were performed as follows. The MMPs were activated with either trypsin or APMA (4-aminophenylmercuric acetate, Sigma Chemical, St. Louis, Mo.). The assayed hydroxamate samples were, incubated in Microfluorrm White Plates (Dynatech, Chantilly, VA) and analyzed on a Perkin Elmer L550 plate reader (Norwalk, Conn.). The excitation wavelength was 328 nm, and the emission wavelength—415 nm. All samples (assayed hydroxamates and controls) were incubated in separate plates at room temperature in the presence of 4 μM of MMP substrate (I). As stated in the previous paragraph, samples containing varying concentrations of the same assayed hydroxamate were prepared. Inhibition was measured as a reduction in fluorescent intensity as a function of MMP inhibitor concentration.

Human recombinant MMP-9 = target: T2, Human recombinant MMP-9 (Homo sapiens, UniProt P14780)
T2 construct: made in house; host or cells: MMP-9-transfected HT1080 cells (spent media)
T2 sequence (P14780 107-707 limits assumed): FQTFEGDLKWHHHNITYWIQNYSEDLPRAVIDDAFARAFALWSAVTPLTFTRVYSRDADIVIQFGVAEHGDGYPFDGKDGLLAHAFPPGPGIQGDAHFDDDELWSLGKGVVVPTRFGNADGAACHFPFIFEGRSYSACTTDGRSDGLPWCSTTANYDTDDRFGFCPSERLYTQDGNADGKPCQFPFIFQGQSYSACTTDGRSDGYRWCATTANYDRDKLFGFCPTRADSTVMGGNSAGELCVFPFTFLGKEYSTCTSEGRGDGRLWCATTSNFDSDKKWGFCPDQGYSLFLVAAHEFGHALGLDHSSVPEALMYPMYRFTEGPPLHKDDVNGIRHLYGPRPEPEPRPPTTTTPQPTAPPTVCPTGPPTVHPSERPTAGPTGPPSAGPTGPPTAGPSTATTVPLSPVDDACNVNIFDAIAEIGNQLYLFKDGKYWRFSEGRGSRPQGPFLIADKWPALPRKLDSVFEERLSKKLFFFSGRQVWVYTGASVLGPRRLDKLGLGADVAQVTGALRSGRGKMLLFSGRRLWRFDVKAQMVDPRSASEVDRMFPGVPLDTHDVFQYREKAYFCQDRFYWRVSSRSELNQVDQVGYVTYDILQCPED
Description: as §1, §2
The MMP-9 proenzyme was purified by gelatin Sepharose chromatography from spent media of MMP-9-transfected HT1080 cells provided by Dr. Howard Welgus of Washington University (St. Louis, Mo.).
as §3, §4, §5, §6, §7, §8

Human recombinant MMP-2 = target: T3, Human recombinant MMP-2 (Homo sapiens, UniProt P08253)
T3 construct: made in house; host or cells: MMP-2-transfected p2AHT2 cells
T3 sequence (P08253 110-660): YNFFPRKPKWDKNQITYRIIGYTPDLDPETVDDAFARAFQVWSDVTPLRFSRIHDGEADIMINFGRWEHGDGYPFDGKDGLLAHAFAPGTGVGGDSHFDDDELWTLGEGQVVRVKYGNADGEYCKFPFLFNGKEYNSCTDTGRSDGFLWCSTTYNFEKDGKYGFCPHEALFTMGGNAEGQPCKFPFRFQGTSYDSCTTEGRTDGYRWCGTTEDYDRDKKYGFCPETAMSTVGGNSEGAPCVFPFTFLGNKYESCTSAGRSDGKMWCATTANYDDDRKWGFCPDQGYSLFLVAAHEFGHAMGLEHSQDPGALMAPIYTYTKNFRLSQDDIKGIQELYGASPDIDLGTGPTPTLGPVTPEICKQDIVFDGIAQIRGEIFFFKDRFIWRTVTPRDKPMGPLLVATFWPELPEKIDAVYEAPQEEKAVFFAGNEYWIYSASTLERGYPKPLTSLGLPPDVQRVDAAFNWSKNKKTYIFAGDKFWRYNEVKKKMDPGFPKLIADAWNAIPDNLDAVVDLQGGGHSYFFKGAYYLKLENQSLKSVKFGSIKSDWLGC
In short: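 IC50 was derived from the concentration-dependent fall in fluorescence (ex 328, em 415 nm) on Gly-Leu cleavage of 4 μM MCA/Dpa-quenched substrate I. Assays ran at room temperature in pH 7.5 Tris/NaCl/CaCl2/Brij buffer with MMP-2 activated by trypsin or APMA; inhibitors were diluted from 1% DMSO stocks.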

Human recombinant MMP-14 = target: T4, Human recombinant MMP-14 (Homo sapiens, UniProt P50281)
T4 construct: The catalytic domain enzyme was expressed in E. coli inclusion bodies, solubilized in urea; made in house
Description: as §1, §2
The MMP-14 full length cDNA was provided by Dr. Gregory Goldberg of Washington University (St. Louis, Mo.). The catalytic domain enzyme was expressed in E. coli inclusion bodies, solubilized in urea, purified on a preparative […] reverse phase HPLC column, and then refolded in the presence of zinc acetate and purified for use.
as §3, §4, §5, §6, §7, §8

Human recombinant MMP-13 = target: T5, Human recombinant MMP-13 (Homo sapiens, UniProt P45452)
T5 construct: made in house; host or cells: baculovirus / insect cells
In short: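 Fluorescence at 415 nm (excitation 328 nm) reports Gly-Leu cleavage of 4 μM quenched methoxycoumarin peptide substrate I. Human recombinant MMP-13, activated by trypsin or APMA, was incubated at room temperature with varied inhibitor concentrations in pH 7.5 Tris/NaCl/CaCl2 buffer; IC50 derived from reduced fluorescence.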

[1] = substrate (I) 4 μM, room temperature, values not in parenthesis
[2] = value outside parentheses (Ki in parenthesis)

SMILES	IC50 (Human recombinant MMP-1; value outside parentheses)	IC50 (Human recombinant MMP-9; value outside parentheses)	IC50 (Human recombinant MMP-2; value outside parentheses)	IC50 (Human recombinant MMP-14; value outside parentheses)	IC50 (Human recombinant MMP-13; value outside parentheses)	IC50 (Human recombinant MMP-1; [2])	IC50 (Human recombinant MMP-9; [2])	IC50 (Human recombinant MMP-2; [2])	IC50 (Human recombinant MMP-14; [2])	IC50 (Human recombinant MMP-13; [2])	other results
O=C(NO)C1(S(=O)(=O)c2ccc(OCCCOCc3ccccn3)cc2)CCOCC1 [Example 519]	> 10000 nM	422 nM	170 nM	> 10000 nM	2.18 nM						
O=C(NO)C1(S(=O)(=O)c2ccc(OCCCSc3nc4ccccc4o3)cc2)CCOCC1 [Example 33, 4-[[4-[3-(2-benzoxazolylthio)propoxy]phenyl]sulfonyl]tetrahydro-N-N-hydroxy-2H-pyran-4-carboxamide]											IC50 (Human recombinant MMP-1; [1]): > 10000 nM; IC50 (Human recombinant MMP-9; [1]): 7.9 nM; IC50 (Human recombinant MMP-2; [1]): 16 nM; IC50 (Human recombinant MMP-14; [1]): 4940 nM; IC50 (Human recombinant MMP-13; [1]): 1 nM
O=C(NO)C1(S(=O)(=O)c2ccc(OCCOc3cccc(F)c3)cc2)CCOCC1 [Example 669]	> 10000 nM	39.1 nM	19.3 nM	2670 nM	7.24 nM						
O=C(NCCCOc1ccc(S(=O)(=O)C2(C(=O)NO)CCOCC2)cc1)c1cnc(Cl)c(Cl)c1 [Example 384]						> 10000 nM	2630 nM	176 nM	> 10000 nM	0.8 nM	
O=C(OCCCCOc1ccc(S(=O)(=O)C2(C(=O)NO)CCOCC2)cc1)N1CCc2ccccc2C1 [Example 34]											IC50 (Human recombinant MMP-1; [1]): 429 nM; IC50 (Human recombinant MMP-9; [1]): > 10000 nM; IC50 (Human recombinant MMP-2; [1]): 36.6 nM; IC50 (Human recombinant MMP-14; [1]): > 10000 nM; IC50 (Human recombinant MMP-13; [1]): 3 nM
Cc1oc(CCCOc2ccc(S(=O)(=O)C3(C(=O)NO)CCOCC3)cc2)nc1-c1ccccc1 [Example 317]						> 10000 nM	244 nM	120 nM	> 10000 nM	3.1 nM	
COCCN1CCC(C(=O)NO)(S(=O)(=O)c2ccc(OCCCn3nnc(-c4ccc(SC)cc4)n3)cc2)CC1 [Example 130]											IC50 (Human recombinant MMP-1; value outside parenthesis): 4610 nM; IC50 (Human recombinant MMP-9; value outside parenthesis): 50.2 nM; IC50 (Human recombinant MMP-2; value outside parenthesis): 4.7 nM; IC50 (Human recombinant MMP-14; value outside parenthesis): 500 nM; IC50 (Human recombinant MMP-13; value outside parenthesis): 0.3 nM
O=C(NO)C1(S(=O)(=O)c2ccc(OCCOCC3CCCCO3)cc2)CCOCC1 (centres unmarked) [Example 661]	> 10000 nM	616 nM	78.2 nM	> 10000 nM	61 nM						
COc1cc(OC)cc(-c2noc(CCCOc3ccc(S(=O)(=O)C4(C(=O)NO)CCOCC4)cc3)n2)c1 [Example 217]											IC50 (Human recombinant MMP-1; value outside parenthesis): > 10000 nM; IC50 (Human recombinant MMP-9; value outside parenthesis): 5180 nM; IC50 (Human recombinant MMP-2; value outside parenthesis): 48.9 nM; IC50 (Human recombinant MMP-14; value outside parenthesis): > 10000 nM; IC50 (Human recombinant MMP-13; value outside parenthesis): 4.6 nM
O=C(NO)C1(S(=O)(=O)c2ccc(OCCCNc3nc4ccccc4o3)cc2)CCOCC1 [Example 321]						> 10000 nM	626 nM	1700 nM	> 10000 nM	3.7 nM	
